According to patent EP4603105A1, “PHARMACEUTICAL COMPOSITION CONTAINING CYCLIC COMPOUND HAVING SELECTIVE KRAS INHIBITORY EFFECT AGAINST HRAS AND NRAS” (CHUGAI SEIYAKU KABUSHIKI KAISHA, priority 2022, dated 2024):
Like-named read-outs stand apart in the source and are kept apart here.

Legend:
[1] = molecular target: GDP-bound KRAS wild-type protein (Homo sapiens, UniProt P01116); test: Binding to KRAS by surface plasmon resonance (SPR), dissociation constant KD
Method in brief: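 Measured at 30°C: SPR with GDP-loaded, E. coli-expressed biotin-Avi RAS captured (~100–300 RU), ascending 75 s compound injections, HBS pH 7.4 with GDP, MgCl2, 4% DMSO. KD from 1:1 fit.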

[2] = molecular target: GDP-bound NRAS wild-type protein (Homo sapiens, UniProt P01111); test: Binding to NRAS by surface plasmon resonance (SPR), KD and KD ratio to KRAS
Chain of GDP-bound NRAS wild-type protein (P01111 whole entry): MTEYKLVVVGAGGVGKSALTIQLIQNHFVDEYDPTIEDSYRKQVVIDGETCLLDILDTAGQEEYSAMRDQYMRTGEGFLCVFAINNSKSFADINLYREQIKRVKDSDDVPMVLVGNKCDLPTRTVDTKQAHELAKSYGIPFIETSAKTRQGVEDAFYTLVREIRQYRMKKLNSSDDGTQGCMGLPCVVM
Method in brief: (§1)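 GDP-bound biotin-Avi RAS captured at ~100–300 RU, 30°C, pH 7.4 HBS containing 10 µM GDP, 10 mM MgCl2, 1 mM DTT, 0.01% Tween 20 and 4% DMSO. KD by 1:1 fitting.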

HRAS wild-type protein = HRAS wild-type protein (Homo sapiens, UniProt P01112); test: Binding to HRAS by surface plasmon resonance (SPR), KD and KD ratio to KRAS
Chain of HRAS wild-type protein (P01112 whole entry): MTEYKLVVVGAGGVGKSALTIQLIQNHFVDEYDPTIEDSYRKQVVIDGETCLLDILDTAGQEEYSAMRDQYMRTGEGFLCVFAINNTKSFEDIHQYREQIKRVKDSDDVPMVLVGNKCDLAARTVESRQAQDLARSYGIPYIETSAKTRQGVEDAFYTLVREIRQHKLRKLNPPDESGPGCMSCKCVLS
Method in brief: as §1

[3] = tested on: human lung cancer strain NCI-H441; test: NCI-H441 cell proliferation inhibitory activity (CellTiter-Glo, 4 days); assay type: cell-based; conditions: read-out: NCl-H441 IC50
Method in brief: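 Readout: […] after the ATP-based reagent. Compound: serial dilutions in dimethyl sulfoxide.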

[4] = ratio of KD for GDP-bound NRAS wild-type protein to KD for KRAS
[5] = ratio of KD for HRAS wild-type protein to KD for KRAS
[6] = Single Cycle Kinetics, 1:1 binding model
[7] = ratio of KD with respect to GDP-bound NRAS wild-type protein to KD with respect to KRAS
[8] = ratio of KD with respect to HRAS wild-type protein to KD with respect to KRAS
[9] = 50% proliferation inhibitory concentration, four days

Chain of GDP-bound KRAS wild-type protein (P01116 1-188 isoform P01116-2): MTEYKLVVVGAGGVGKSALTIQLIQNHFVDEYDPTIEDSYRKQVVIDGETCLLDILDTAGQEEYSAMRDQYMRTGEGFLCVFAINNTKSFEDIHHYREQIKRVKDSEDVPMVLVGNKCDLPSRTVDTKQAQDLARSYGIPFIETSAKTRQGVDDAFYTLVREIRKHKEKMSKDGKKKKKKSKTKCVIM

Row | Kd ([1]; Single Cycle Kinetics) [nM] | IC50 ([3]; NCI-H441 cells, 4 days) [nM] | Kd [1, 6] [nM] | IC50 [3, 9] [nM] | Kd ([1]; 1:1 binding model) [nM] | SMILES | NRAS /KRAS [2, 4] | HRAS /KRAS (HRAS wild-type protein; [5]) | NRAS /KRAS [2, 7] | HRAS /KRAS (HRAS wild-type protein; [8])
1 | 0.73 | 12.5 |  |  |  | C#CCN1CC(=O)N(C)[C@H]2C/C=C\CCN(C2=O)[C@@H](Cc2ccc(C(F)F)cc2)C(=O)N(C)CC(=O)N[C@@H](CCc2cc(F)c(C(F)(F)F)c(F)c2)C(=O)N2C[C@H](OCC)C[C@H]2C(=O)N(C)C2(CCC2)C(=O)N(C)[C@@H](C(CC)CC)C(=O)N(C)[C@H](C(=O)N(C)C)CC(=O)N(C)[C@@H](COCCC)C(=O)N[C@@H]([C@@H](C)OC)C1=O [PP3506] | A (a compound having 10 or more and less than 20 is denoted as A) | A (a compound having 10 or more and less than 20 is denoted as A) |  | 
2 |  |  | 0.056 | 3.6 |  | CCO[C@@H]1C[C@H]2C(=O)NC3(CCC3)C(=O)N(C)[C@@H](C3CCCC3)C(=O)N(C)[C@H](C(=O)N3CCOCC3)CC(=O)N(C)[C@@H](CC)C(=O)N[C@@H]([C@@H](C)CC)C(=O)N(C)CC(=O)N(C)[C@H]3C[C@@H](C)[C@@H](C)CN(C3=O)[C@@H](Cc3ccc(C(F)(F)F)cc3)C(=O)N(C)CC(=O)N[C@@H](CCc3cc(F)c(C(F)(F)F)c(F)c3)C(=O)N2C1 [PP1354] |  |  | A (a compound having 10 or more and less than 20 is denoted as A) | B (a compound having 3 or more and less than 10 is denoted as B)
3 |  |  | 0.23 | 18.9 |  | CCO[C@@H]1C[C@H]2C(=O)NC3(CCC3)C(=O)N(C)[C@@H](C3CCCC3)C(=O)N(C)[C@H](C(=O)N(C)C)CC(=O)N(C)[C@@H](CC(C)C)C(=O)N[C@@H]([C@@H](C)CC)C(=O)N(C)CC(=O)N(C)[C@H]3C/C=C\CCN(C3=O)[C@@H](Cc3ccc(C(F)(F)F)cc3)C(=O)N(C)CC(=O)N[C@@H](CCc3cc(F)c(Cl)c(F)c3)C(=O)N2C1 [PP1263] |  |  | A (a compound having 10 or more and less than 20 is denoted as A) | A (a compound having 10 or more and less than 20 is denoted as A)
4 |  |  | 0.48 | 17.8 |  | CCO[C@@H]1C[C@H]2C(=O)NC3(CCC3)C(=O)N(C)[C@@H](C(CC)CC)C(=O)N(C)[C@H](C(=O)N(C)C)CC(=O)N(C)[C@@H](CC(C)C)C(=O)N[C@@H]([C@@H](C)CC)C(=O)N(C)CC(=O)N(C)[C@H]3C/C=C\CCN(C3=O)[C@@H](Cc3ccc(C(F)(F)F)cc3)C(=O)N(C)CC(=O)N[C@@H](CCc3ccc(Cl)c(Cl)c3)C(=O)N2C1 [PP1217] |  |  | AA (a compound having 20 or more is denoted as AA) | A (a compound having 10 or more and less than 20 is denoted as A)
5 |  | 26 |  |  | 1.4 | CCOC[C@H]1C(=O)N[C@@H]([C@@H](C)CC)C(=O)N(C)CC(=O)N(C)[C@H]2C/C=C\CCN(C2=O)[C@@H](CC2CCCCC2)C(=O)N(C)CC(=O)N[C@@H](CCc2cc(F)c(C(F)(F)F)c(F)c2)C(=O)N2C[C@H](OCC)C[C@H]2C(=O)NC2(CC(C)(C)C2)C(=O)N(C)[C@@H](C(CC)CC)C(=O)N(C)[C@H](C(=O)N(C)C)CC(=O)N1C [PP2479] | AA (a compound having 20 or more is denoted as AA) | A (a compound having 10 or more and less than 20 is denoted as A) |  | 
6 | 0.74 | 17.5 |  |  |  | CCCC[C@H]1C(=O)N[C@@H]([C@@H](C)CC)C(=O)N2CCC[C@H]2C(=O)N(C)[C@H]2C/C=C\CCN(C2=O)[C@@H](Cc2ccc(C)cc2)C(=O)N(C)CC(=O)N[C@@H](CCc2ccc(C(F)(F)F)c(OC)c2)C(=O)N2C[C@H](OCC)C[C@H]2C(=O)OC2(CCC2)C(=O)N(C)[C@@H](C2CCCC2)C(=O)N(C)[C@H](C(=O)N(C)C)CC(=O)N1C [PP3383] | A (a compound having 10 or more and less than 20 is denoted as A) | A (a compound having 10 or more and less than 20 is denoted as A) |  | 
7 |  |  | 0.17 | 9.7 |  | CCO[C@@H]1C[C@H]2C(=O)NC3(CCC3)C(=O)N(C)[C@@H](C(CC)CC)C(=O)N(C)[C@H](C(=O)N(C)C)CC(=O)N(C)[C@@H](CC(C)C)C(=O)N[C@@H]([C@@H](C)CC)C(=O)N(C)CC(=O)N(C)[C@H]3C/C=C\CCN(C3=O)[C@@H](Cc3ccc(C(F)(F)F)cc3)C(=O)N(C)CC(=O)N[C@@H](CCc3cc(F)c(C(F)(F)F)c(F)c3)C(=O)N2C1 [PP1201] |  |  | AA (a compound having 20 or more is denoted as AA) | A (a compound having 10 or more and less than 20 is denoted as A)
8 |  | 10.2 |  |  | 0.28 | CCC[C@H]1C(=O)N[C@@H]([C@@H](C)CC)C(=O)N(C2CC2)CC(=O)N(C)[C@H]2C/C=C\CCN(C2=O)[C@@H](Cc2ccc(C(F)(F)F)cc2)C(=O)N(C)CC(=O)N[C@@H](CCc2ccc(C(F)(F)F)c(OC)c2)C(=O)N2C[C@H](OCC)C[C@H]2C(=O)NC2(CC(C)(C)C2)C(=O)N(C)[C@@H](CC(C)(C)C)C(=O)N(C)[C@H](C(=O)N(C)C)CC(=O)N1C [PP2746] | A (a compound having 10 or more and less than 20 is denoted as A) | A (a compound having 10 or more and less than 20 is denoted as A) |  | 
9 | 0.052 | 9.3 |  |  |  | CCC[C@H]1C(=O)N[C@@H](C2CCCC2)C(=O)N(C)CC(=O)N(C)[C@H]2C/C=C\CCN(C2=O)[C@@H](Cc2ccc(C)cc2)C(=O)N(C)CC(=O)N[C@@H](CCc2cc(F)c(C(F)(F)F)c(F)c2)C(=O)N2CC3(CC3)C[C@H]2C(=O)N(C)C2(CCC2)C(=O)N(C)[C@@H](C2CCCC2)C(=O)N(C)[C@H](C(=O)N(C)C)CC(=O)N1C [PP3306] | A (a compound having 10 or more and less than 20 is denoted as A) | B (a compound having 3 or more and less than 10 is denoted as B) |  | 
10 |  | 41.9 |  |  | 0.64 | CCOC[C@H]1C(=O)N[C@@H]([C@@H](C)CC)C(=O)N(C)CC(=O)N(C)[C@H]2C/C=C\CCN(C2=O)[C@@H](CC2CCCCC2)C(=O)N(C)CC(=O)N[C@@H](CCc2ccc(C(F)(F)F)c(OC)c2)C(=O)N2C[C@@H](C)C[C@H]2C(=O)N(C)C2(CCC2)C(=O)N(C)[C@@H](C2CCCC2)C(=O)N(C)[C@H](C(=O)N(C)C)CC(=O)N1C [PP2371] | A (a compound having 10 or more and less than 20 is denoted as A) | B (a compound having 3 or more and less than 10 is denoted as B) |  | 
11 | 0.86 | 58.3 |  |  |  | C=C(C)C[C@H]1C(=O)N(C)[C@H](C(=O)N(C)C)CC(=O)N(C)[C@@H](CC(C)C)C(=O)N[C@@H]([C@@H](C)CC)C(=O)N(C)CC(=O)N(C)[C@H]2C/C=C\CCN(C2=O)[C@@H](Cc2ccc(C)cc2)C(=O)N(C)CC(=O)N[C@@H](CCc2ccc(C(F)(F)F)c(OC)c2)C(=O)N2C[C@H](OCC)C[C@H]2C(=O)N(C)C2(CCC2)C(=O)N1C [PP3345] | A (a compound having 10 or more and less than 20 is denoted as A) | A (a compound having 10 or more and less than 20 is denoted as A) |  | 
12 | 0.079 | 1.4 |  |  |  | CCC[C@H]1C(=O)N[C@@H]([C@@H](C)CC)C(=O)N(C)CC(=O)N(C)[C@H]2C/C=C\CCN(C2=O)[C@@H](Cc2ccc(C)cc2)C(=O)N(C)CC(=O)N[C@@H](CCc2ccc(C(F)(F)F)c(OC)c2)C(=O)N2CC3(CC3)C[C@H]2C(=O)N(C)C2(CCC2)C(=O)N(C)[C@@H](CC(C)(C)C)C(=O)N(C)[C@H](C(=O)N(C)C)CC(=O)N1C [PP3296] | B (a compound having 3 or more and less than 10 is denoted as B) | C (A compound having a KD ratio of 0.1 or more and less than 3 is denoted as C) |  | 
